Columns and labels:
Format in all cases: cell-based
[1] = molecular target: T1, RARβ (Homo sapiens, UniProt P10826); assay: Transactivation assay for RAR beta (gal4-RAR fusion, luciferase reporter, COS-7 cells); settings: ratio of test compound EC50 to that of atRA; inactive = no agonist action at the highest concentration tested
T1 construct: gal4 (fusion partner); expressed in transfected cells; host or cells: COS-7
T1 sequence (P10826 183-417 limits assumed): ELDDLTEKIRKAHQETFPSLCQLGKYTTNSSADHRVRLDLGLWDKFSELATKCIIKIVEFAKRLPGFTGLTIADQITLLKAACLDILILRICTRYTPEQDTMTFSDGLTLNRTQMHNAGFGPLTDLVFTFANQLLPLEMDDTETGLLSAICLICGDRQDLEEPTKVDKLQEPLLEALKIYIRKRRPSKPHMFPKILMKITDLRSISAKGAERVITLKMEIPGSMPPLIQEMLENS
Outline: (§1)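 COS-7 cells co-transfected with gal4–RAR ligand-binding-domain fusion and pFR-luc reporter, then treated with compound in phenol-red-free DMEM (1% DMSO) for about one day. Luciferase read after lysis with BrightGlo; EC50 values from replicate experiments given as a ratio of means.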

[2] = molecular target: T2, RARγ (Homo sapiens, UniProt P13631); assay: Transactivation assay for RAR gamma (gal4-RAR fusion, luciferase reporter, COS-7 cells); settings: ratio of test compound EC50 to that of atRA; inactive = no agonist action at the highest concentration tested
T2 construct: gal4 (fusion partner); expressed in transfected cells; host or cells: COS-7
T2 sequence (P13631 185-419 limits assumed): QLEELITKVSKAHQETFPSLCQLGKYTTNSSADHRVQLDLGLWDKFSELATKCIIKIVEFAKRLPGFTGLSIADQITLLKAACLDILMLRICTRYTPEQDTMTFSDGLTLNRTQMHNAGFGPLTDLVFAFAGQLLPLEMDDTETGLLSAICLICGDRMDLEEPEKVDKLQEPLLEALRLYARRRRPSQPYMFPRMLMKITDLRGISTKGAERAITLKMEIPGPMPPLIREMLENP
Outline: as §1

[3] = molecular target: T3, RARα (Homo sapiens, UniProt P10276); assay: Transactivation assay for RAR alpha (gal4-RAR fusion, luciferase reporter, COS-7 cells); settings: for RARα/RARβ ratio (*): fold-selectivity for RARα over RARβ; for RARα activity ratio: ratio of test compound EC50 to that of atRA on the same plate
T3 construct: gal4 (fusion partner); expressed in transfected cells; host or cells: COS-7
T3 sequence (P10276 183-417 limits assumed): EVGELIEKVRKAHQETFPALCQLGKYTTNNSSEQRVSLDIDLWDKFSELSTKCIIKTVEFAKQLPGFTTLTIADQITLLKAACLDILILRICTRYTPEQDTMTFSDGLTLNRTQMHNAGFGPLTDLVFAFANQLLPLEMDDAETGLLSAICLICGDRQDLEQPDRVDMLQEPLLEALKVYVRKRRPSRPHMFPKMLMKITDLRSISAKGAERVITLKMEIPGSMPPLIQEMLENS
Outline: as §1

| RARβ activity ratio [1] | RARγ activity ratio [2] | Improvement (RARα activity ratio) ([3]; compared with XXX-03) | Improvement (RARα/RARβ ratio) ([3]; compared with XXX-03) | RARα/RARβ ratio (*) [3] | RARα activity ratio [3] | increase in RARα activity ([3]; compared with XXX-01) [fold] | increase in RARα versus RARβ selectivity ([3]; compared with XXX-01) [fold] | Structure (SMILES) |
| --- | --- | --- | --- | --- | --- | --- | --- | --- |
| 1420 | 820 | ~13-fold | ~29-fold |  |  |  |  | CC(C)Oc1c(Cl)cc(C(=O)Nc2ccc(C(=O)O)cc2)cc1Cl [AAA-004, 4-(3,5-Dichloro-4-isopropoxybenzamido)benzoic acid] |
| 976 | 60833 |  |  | 140 | 7 |  |  | CCOc1c(Cl)cc(C(=O)Nc2ccc(C(=O)O)c(F)c2)cc1C(F)(F)F [AAA-068, 4-(3-Chloro-4-ethoxy-5-(trifluoromethyl)benzamido)-2-fluorobenzoic acid] |
| 1926 | 69000 |  |  | 107 | 18 |  |  | COc1c(Cl)cc(C(=O)Nc2ccc(C(=O)O)c(C)c2)cc1Cl [AAA-055, 4-(3,5-Dichloro-4-methoxybenzamido)-2-methylbenzoic acid] |
| 6087 | >1400 |  |  | 234 | 26 |  |  | CCOc1c(Cl)cc(C(=O)Nc2ccc(C(=O)O)cc2)cc1OC [AAA-084, 4-(3-Chloro-4-ethoxy-5-methoxybenzamido)benzoic acid] |
| 1410 | 414 |  |  | 336 | 4.2 |  |  | CCOc1c(Br)cc(C(=O)Nc2ccc(C(=O)O)c(C)c2)cc1Br [AAA-053, 4-(3,5-Dibromo-4-ethoxybenzamido)-2-methylbenzoic acid] |
| 9660 | inactive |  |  | 64.0 | 151 |  |  | CCOc1c(Cl)cc(C(=O)Nc2ccc(C(=O)O)c(Cl)c2)cc1Cl [AAA-018, 2-Chloro-4-(3,5-dichloro-4-ethoxybenzamido)benzoic acid] |
| 214 | inactive |  |  | 2.0 | 108 |  |  | CCOc1c(Cl)cc(NC(=O)c2ccc(C(=O)O)cn2)cc1Cl [AAA-020, 6-(3,5-Dichloro-4-ethoxyphenylcarbamoyl)nicotinic acid] |
| 5200 | 1531 |  |  | 118 | 44 |  |  | CCOc1c(OC(C)C)cc(C(=O)Nc2ccc(C(=O)O)c(C)c2)cc1OC(C)C [AAA-061, 4-(4-Ethoxy-3,5-diisopropoxybenzamido)-2-methylbenzoic acid] |
| 355 | inactive |  |  | 11.8 | 30 |  |  | CCOc1c(Cl)cc(NC(=O)c2ccc(C(=O)O)cc2)cc1Cl [AAA-013, 4-(3,5-Dichloro-4-ethoxyphenylcarbamoyl)benzoic acid] |
| 55 | 571 |  |  | 32 | 1.7 |  |  | O=C(O)c1ccc(NC(=O)c2cc(Cl)c(OC3CCCC3)c(OC3CCCC3)c2)cc1 [AAA-044, 4-(3-Chloro-4,5-bis(cyclopentyloxy)benzamido)benzoic acid] |
| 10164 | 5000 |  |  | 535 | 19 |  |  | COCCOc1cc(C(=O)Nc2ccc(C(=O)O)c(F)c2)cc(Cl)c1OC [AAA-104, 4-(3-Chloro-4-methoxy-5-(2-methoxyethoxy)benzamido)-2-fluorobenzoic acid] |
| 19 | 148 |  |  | 1.5 | 13 |  |  | CCOc1c(Cl)cc(C(=O)Nc2ccc(C(=O)O)c(C(F)(F)F)c2)cc1Cl [AAA-033, 4-(3,5-Dichloro-4-ethoxybenzamido)-2-(trifluoromethyl)benzoic acid] |
| 505 | 3380 |  |  | 421 | 1.2 |  |  | CC(C)Oc1c(Cl)cc(C(=O)Nc2ccc(C(=O)O)c(F)c2)cc1C(F)(F)F [AAA-069, 4-(3-Chloro-4-isopropoxy-5-(trifluoromethyl)benzamido)-2-fluorobenzoic acid] |
| 4200 | 550 |  |  | 145 | 29 |  |  | CCOc1c(OC2CCCC2)cc(C(=O)Nc2ccc(C(=O)O)cc2)cc1OC1CCCC1 [AAA-058, 4-(3,5-Bis(cyclopentyloxy)-4-ethoxybenzamido)benzoic acid] |
| 131 | inactive |  |  |  |  | 65 | 3 | CCOc1c(Cl)cc(C(=O)Nc2ccc(C(=O)O)cc2)cc1C(F)(F)F [AAA-025, 4-(3-Chloro-4-ethoxy-5-(trifluoromethyl)benzamido)benzoic acid] |
| 57 | 583 |  |  | 21 | 2.6 |  |  | CCC(CC)Oc1cc(C(=O)Nc2ccc(C(=O)O)c(F)c2)cc(Cl)c1OC [AAA-103, 4-(3-Chloro-4-methoxy-5-(pentan-3-yloxy)benzamido)-2-fluorobenzoic acid] |
| 117 | 220 |  |  | 6 | 19 |  |  | CCOc1c(F)cc(C(=O)Nc2ccc(C(=O)O)cc2)cc1F [AAA-073, 4-(4-Ethoxy-3,5-difluorobenzamido)benzoic acid] |
| 536 | 6786 |  |  | 487 | 1.1 |  |  | CCOc1c(Cl)cc(C(=O)Nc2ccc(C(=O)O)c(F)c2)cc1OC(C)C [AAA-079, 4-(3-Chloro-4-ethoxy-5-isopropoxybenzamido)-2-fluorobenzoic acid] |
| 208 | 55172 |  |  | 46 | 4.5 |  |  | CCOc1cc(C(=O)Nc2ccc(C(=O)O)c(F)c2)cc(OC(CC)CC)c1Cl [AAA-116, 4-(4-Chloro-3-ethoxy-5-(pentan-3-yloxy)benzamido)-2-fluorobenzoic acid] |
| 283 | 3651 |  |  | 39 | 7.3 |  |  | O=C(O)c1ccc(NC(=O)c2cc(Cl)c(OCc3ccccc3)c(OCc3ccccc3)c2)cc1 [AAA-045, 4-(3,4-bis(benzyloxy)-5-chlorobenzamido)benzoic acid] |
| 2570 | inactive |  |  | 7.9 | 327 |  |  | CCOc1ccc(C(=O)Nc2ccc(C(=O)O)cc2)cc1C(F)(F)F [XXX-01, 4-(4-Ethoxy-3-(trifluoromethyl)benzamido)benzoic acid, reference compound] |

| Structure (SMILES) | RARβ activity ratio [1] | RARγ activity ratio [2] | Improvement (RARα activity ratio) ([3]; compared with XXX-03) | Improvement (RARα/RARβ ratio) ([3]; compared with XXX-03) | RARα/RARβ ratio (*) [3] | RARα activity ratio [3] | increase in RARα activity ([3]; compared with XXX-01) [fold] | increase in RARα versus RARβ selectivity ([3]; compared with XXX-01) [fold] |
| --- | --- | --- | --- | --- | --- | --- | --- | --- |
| COc1c(Cl)cc(C(=O)Nc2ccc(C(=O)O)cc2)cc1OC1CCC1 [AAA-098, 4-(3-Chloro-5-cyclobutoxy-4-methoxybenzamido)benzoic acid] | 433 | 2955 |  |  | 36 | 12 |  |  |
| CC(C)(C)Oc1cc(C(=O)Nc2ccc(C(=O)O)cc2)cc(Cl)c1OC(C)(C)C [AAA-048, 4-(3,4-Di-tert-butoxy-5-chlorobenzamido)benzoic acid] | 38 | 162 |  |  | 44 | 0.86 |  |  |

— patent US9447028B2, “Therapeutic aryl-amido-aryl compounds and their use” (King's College London, priority 2009, dated 2016)
